Measured values as given in US8802240B2, “Uses of formulations of thyroid hormone analogs and nanoparticulate forms thereof to increase chemosensitivity and radiosensitivity in tumor or cancer cells” (Nanopharmaceuticals LLC, priority 2011, dated 2014).

Legend:
[1] = system: U87MG human glioblastoma cells; test: U87MG clonogenic survival after 250 kVp single dose x-irradiation; format: cell-based
Description: To irradiate culture flasks, a Philips 250 kVp x-ray machine (Philips Corp., Fall River, Mass.) operated at 250 kVp and 15 mA with added filtration of a 0.4 mm Thoreaus filter was used. The target to source distance was 30 cm. Dose rates were measured using an R-meter (Victoreen Co., Cleveland, Ohio), and converted to absorbed (Gy) doses using appropriate temperature, pressure, and R to Gy conversion factors. The dose rate was approximately 1 Gy/min. Flasks were irradiated after being taken from a 37° C. environment and moved to the x-ray source. Movement at ambient temperature took approximately 1-2 min. Cells were next placed on ice and allowed to cool for 5 min. Lastly, flasks were placed in the Philips irradiator on top of a 2 mm thickness of Lucite which was on top of a layer of crushed ice.
The maximum time needed for irradiation of the single dose survival curve was approximately 8 min.
For SHMT analysis, data lying at or below a fractional survival (F×S) value of 0.368 were fit using a linear regression analysis of the log survival data versus linear dose. From this fit the extrapolation number (n), the quasi-threshold dose (Dq, Gy) and the inverse of the inactivation slope (Do, Gy) were derived.
For LQ analyses, survival data lying between the fractional survivals of 1.00 and 0.05 were used. The log survival data were transformed to a linear form using the relationship (−ln F×S/D) and plotted against D. A linear regression analysis was performed to yield the LQ equation along with the 95% confidence limits on the y-intercept (alpha) and the slope (beta) using a t-table with the appropriate (N−1) degrees of freedom. (See Goldstein A. Biostatistics, Academic Press, 1995.)

[2] = system: doxorubicin-resistant MCF7/R cells; test: Doxorubicin-resistant tumors in nude mice; format: in vivo
Description: Mice were injected with doxorubicin-resistant MCF7/R cells (10^6) and after 10 days, they were assigned into groups of seven mice each and challenged with doxorubicin (2 mg/kg) or Tetrac (30 mg/kg) either alone or in combination. Tumor volume was measured every 3 days for up to three weeks.

SKN-SH/R cells = test: Senescence and apoptosis in drug resistant cells; format: cell-based; conditions: 24 h
Description: In FIG. 16A, SKN-SH/R cells were subjected to treatment doxorubicin (Dox) alone, Tetrac alone, or the combination of both for 24 h. Expression of p21/WAF1, cleaved caspase-3 (Cl-Casp-3) and beta action were measured by Western blot using specific antibodies. In FIG. 16B, the cells were seeded in 24 well plates and treated as mentioned above and expression of the senescence associated beta galactosidase (SA-β-Gal.) was assayed as described in the methods section. In FIG. 16C, the cells were seeded on cover slips and treated with the drugs as above for 24 h, after which they were fixed and stained with Hoechst and the percentage of positive cells graphed. The data represent average of 3 determinations±SE.

[3] = system: DNA double-strand breaks in U87MG cells; test: U87MG neutral comet assay of DNA double-strand breaks; format: cell-based, human
Description: For the comet assay studies of induction and repair of DSBs in U87MG cells, cells were treated as described above. However, for the single dose induction of DSBs doses ranged from 0-30 Gy, and for the study of the repair of DSBs in irradiated cells, a large single dose of 60 Gy requiring approximately 1 h of irradiation time was given. Appropriate temperature controls (on ice) were run to insure that no decrement in survival was produced by the 1 h exposure to 0° C.
U87MG cells on plastic slides were exposed to 2 nM Tetrac for 1 h at 37° C. These slides were then placed on crushed ice and irradiated with doses from 0 to 75 Gy. Slides were immersed in lysing solution at 50° C. for 2 hours. Slides were washed, and placed into a gel electrophoresis unit. Electrophoresis was carried out at 0.66 V/cm for 25 min. Cells were stained with ethidium bromide and image analysis was done using an epifluoresence microscope at a total magnification of 400×. We also used an excitation filter of 515-535 nm and a barrier filter at 590 nm. The mean tail moment (TM) which is expressed in arbitrary units was then calculated. TM was calculated using a CCD camera and software. Approximately 350 comets were analyzed per condition.

[4] = system: medullary thyroid carcinoma cells implanted in CAM; test: CAM cancer implant model; format: in vivo, chick; conditions: 1 μg/CAM; n = 8; P<0.01
Description: The effect of Tetrac versus nanoparticulate Tetrac at 1.0 μg/CAM on tumor angiogenesis and tumor growth of 1×10^6 medullary thyroid carcinoma cells implanted in Matrigel in 7 day-old CAM's was determined 8 days after implantation. […] Data represent mean tumor weight (mg) and tumor hemoglobin (mg/dL)±SEM per treatment group, n=8 per group.

Solubility = format: physicochemical; conditions: required a high volume of cosolvent (DMSO)
GL261 tumor cells = test: GL261 44° C. hyperthermia; format: cell-based, murine; conditions: 44° C. plus Tetrac is the equivalent of 45° C. without Tetrac
Description: Additionally, Tetrac sensitizes GL261 cells in hyperthermic conditions. Graded heat treatment of GL261 tumor cells with 44° C. was given, without and with Tetrac. Tetrac increased cell killing as compared to control cells alone, by the equivalent of about 1° C. (i.e., 44° C. plus Tetrac is the equivalent of 45° C. without Tetrac). (See FIG. 63).

[5] = system: P-gp, GST and SOD in MCF7/R cells; test: Western blot of classical drug resistance genes; format: cell-based; conditions: 24 h
Description: FIG. 15A is a Western blofshowing the expression of P-gp, GST and SOD in wild type (W) drug sensitive and resistant (R) MCF7 cells. […] The cells were treated for 24 h with each drug alone or the combination of both, after that, expression of drug resistance molecules was determined by Western blot using specific antibodies. […] The cells were incubated for 24 hours with doxorubicin in the absence or the presence of Tetrac, after that they were washed and then solubilized. Radioactivity associated with the cell lysates was counted and compared between the two cell lines either treated or not with Tetrac. The data represent an average of 3 determinations±SE.

human cancer xenografts = conditions: in vivo; cited from earlier work
[6] = system: human medullary carcinoma of the thyroid (MTC) xenograft; test: MTC xenograft in nude mice; conditions: mouse, in vivo
Source text: Water and food were provided ad libitum.

O=C(O)Cc1cc(I)c(Oc2cc(I)c(O)c(I)c2)c(I)c1 [Tetrac, tetraiodothyroacetic acid]
increase of α (ratio of the alpha values, sensitization factor) [1]: 3.6 fold
isoeffect comparison at 10% survival, ratio [1]: 2.2
ratio of relative survival values at 2 Gy [1]: 4.6
reduction of the D0 value [1]: 31%
β (LQ) ([1]; Tetrac treated cells, control 0.016 (±0.002)): 0.076 (±0.006)
n (SHMT) ([1]; Tetrac treated cells, control 2.97 (2.41-3.21)): 1.01 (0.45-2.3)
sensitization factor, average of 3 comparisons ([1]; range of 2.2 to 4.6): 3.5
toxic effect (in words) ([2]; Tetrac 30 mg/kg): without any noticeable toxic effect
doxorubicin-sensitivity in vivo (in words) ([2]; Tetrac 30 mg/kg with doxorubicin 2 mg/kg): not restored
growth of doxorubicin-resistant tumors (in words) ([2]; Tetrac 30 mg/kg, up to three weeks): effective in suppressing the growth of drug resistant tumors
doxorubicin-induced proliferation arrest (p21/WAF1), SA-β-Gal and cell death (in words) (SKN-SH/R cells): dramatically enhanced
effect on the slope of the mean tail moment in graded single dose studies (in words) [3]: did not affect the slope of the mean tail moment
sensitization factor from mean tail moment at 0 Gy [3]: 2.2
inhibition of repair of DNA double strand breaks / decrease of repair rate ([3]; [(1.00−slope Tetrac/slope control)×100]): 72.5%
slope of time-dependent DSB repair ([3]; after 30 Gy of x-rays, control −4.36): −1.20
tumor growth (in words) [4]: effective inhibition
tumor-mediated angiogenesis (in words) [4]: significant inhibition
solubility in water (in words) (Solubility): difficult to solubilize in water
half-time for Tetrac uptake (Tetrac uptake): 10 to 15 min
increase in cell killing, temperature equivalent (GL261 tumor cells): about 1 °C
expression of P-glycoprotein, SOD and GST-π (in words) [5]: none of these genes was significantly altered
systemic toxicity (in words) (human cancer xenografts): have not to-date shown systemic toxicity
mortality (in words) [6]: no mortality
